Assay results from US20140234888A1, “Method for Improved Selection of Therapeutic Agents” (priority 2013, published 2014).

How the values were obtained:
whole blood = experiment: TDR-test in vitro, blood of patient G. (Example 1); assay type: cell-based, human; settings: for reduction TDR: after 24 hours of incubation
[1] = test system: Chronic rhinitis of allergic origin, chronic bronchitis; experiment: Treatment of patient F.; assay type: in vivo, human; settings: before individual testing
Experimental: Diagnosis: “Chronic rhinitis of allergic origin, chronic bronchitis, allergic component in the acute stage.” In history: positive allergic reactions to penicillin antibiotics, the lack of reaction to tetracycline antibiotics. […] Doxycycline is used in doses of 100 mg and 200 mg on admission; when calculating the duration of induktothermy effect was adopted by the duration of the patient's blood sample for 2 seconds, which corresponds to the length of the actual procedure, 25-30 minutes.

blood cell fraction = experiment: TDR-test in vitro, blood of patient B. (Example 2); assay type: cell-based, human; settings: for reduction TDR: patient B. blood, after 24 hours of incubation
Experimental: Individual selection of anticancer chemotherapy was based on testing the dynamics of TDR in blood with cytostatics—Etoposide (in single therapeutic doses 80-100-120 mg/m2), Cisplatin (25-50-75-100 mg/m2), Carboplatin (150-300-450 mg/m2), Gemcitabine (800-1000-1200 mg/m2), Navelbine (25-30-35 mg/m2), Doxorubicin (20-30-40 mg/m2), Epidoxorubicin (50-70-90 mg/m2), Mitomycin C (4-6-8 mg/m2).

[2] = test system: microflora of the respiratory tract; experiment: Sputum sample sensitivity to antibiotics (antibiotikogramma); assay type: cell-based; settings: sputum sample of patient M.
patient's blood = experiment: TDR-test in vitro, blood of patient M. (Example 4); settings: various doses, 1, 2 and 24 hours
Experimental: Therefore, we first proposed to take, in fact, it is a dynamic integrated assessment test “in vitro” level of nonspecific resistance to therapeutic agents during interaction with the blood of the patient. Selection of optimal treatments, their doses and combinations proposed to control the TDR dynamics within 24-72 hours, with some time intervals. The choice of temporary interval for determination the TDR dynamic is defined of main stage of the biochemical interaction of medicine (or non-drug therapeutic influence) with blood of the patient in vitro (phase 1—induction of biochemical reactions within the first 10-40 minutes, 2nd—for 1-3 hours, 3rd—within 24-72 hours). Therefore, TDR is expedient to record in intervals of precisely these three main stages of the induced signal transduction and protein synthesis (30-60 minutes, 2-3 hours, 24-72 hours after the start of testing).

[3] = test system: Chronic obstructive bronchitis; experiment: Treatment of patient M.; assay type: in vivo, human; settings: endobronchial 250 mg followed by inductothermy 30 minutes, 1 treatment per day, 10 procedures, 2 weeks
Experimental: Based on the results of investigations the patient was assigned to a combination of antibiotic Cefazolin and inductothermy: endobronchial administration of Cefazolin 250 mg and immediately after this session inductothermy the projection of the large bronchi in the anterior-posterior direction with opposing fields of the two vehicles “Magniterm” for 30 minutes.

For `O=P1(N(CCCl)CCCl)NCCCO1` (stereo not drawn) [Cyclophosphamide], which “reduction TDR” value (whole blood; dose 600 mg/m2) is on record?
The value was 30%.

Which “efficiency of conventional therapy” value [1] does the source give for `CC[C@H]1OC(=O)[C@H](C)[C@@H](O[C@H]2C[C@@](C)(OC)[C@@H](O)[C@H](C)O2)[C@H](C)[C@@H](O[C@@H]2O[C@H](C)C[C@H](N(C)C)[C@H]2O)[C@](C)(O)C[C@@H](C)C(=O)[C@H](C)[C@@H](O)[C@]1(C)O` [Erythromycin] here?
Its value is “low efficiency”.

How did the “efficiency of conventional therapy” value [1] turn out when `CN1CCc2c(c3ccccc3n2Cc2ccccc2)C1` [Diazolin] was run?
The value was “low efficiency”.

How did the “reduction TDR” value (blood cell fraction; dose 25 mg/m2) turn out when `CCC1=C[C@@H]2CN(C1)Cc1c([nH]c3ccccc13)[C@@](C(=O)OC)(c1cc3c(cc1OC)N(C)[C@H]1[C@@](O)(C(=O)OC)[C@H](OC(C)=O)[C@]4(CC)C=CCN5CC[C@]31[C@@H]54)C2` [Navelbine] was run?
The value was 20%.

How did the “reduction TDR” value (blood cell fraction; dose 120 mg/m2) turn out when `COc1cc([C@@H]2c3cc4c(cc3[C@@H](O[C@@H]3O[C@@H]5CO[C@@H](C)O[C@H]5[C@H](O)[C@H]3O)[C@H]3COC(=O)[C@H]23)OCO4)cc(OC)c1O` [Etoposide] was run?
The value was 21%.

With `N.N.O=C([O-])C1(C(=O)[O-])CCC1.[Pt+2]` [Carboplatin] as the compound, how does the “reduction TDR” value (blood cell fraction; dose 350 mg/m2) read?
Its value is 27%.

And the “reduction TDR” value (whole blood; dose 450 mg/m2)?
The value was 36%.

Which results are given for `N.N.[Cl][Pt][Cl]` [Cisplatin]?
reduction TDR (blood cell fraction; dose 100 mg/m2): 32%; reduction TDR (whole blood; dose 75 mg/m2): 32%

Which “reduction TDR” value (blood cell fraction; dose 1200 mg/m2) does the source give for `Nc1ccn([C@@H]2O[C@H](CO)[C@@H](O)C2(F)F)c(=O)n1` [Gemcitabine] here?
Its value is 30%.

Which “reduction TDR” value (blood cell fraction; dose 190 mg/m2) does the source give for `CC(=O)O[C@H]1C(=O)[C@@]2(C)[C@H]([C@H](OC(=O)c3ccccc3)[C@]3(O)C[C@H](OC(=O)[C@H](O)[C@@H](NC(=O)c4ccccc4)c4ccccc4)C(C)=C1C3(C)C)[C@]1(OC(C)=O)CO[C@@H]1C[C@@H]2O` [Paclitaxel] here?
The value was 25%.

And the “reduction TDR” value (whole blood; dose 175 mg/m2)?
Its value is 28%.

`Cc1nnc(SCC2=C(C(=O)O)N3C(=O)[C@@H](NC(=O)Cn4cnnn4)[C@H]3SC2)s1` [Cefazolin] was tested. Which “sensitivity of the microflora to the antibiotic” value [2] did it give?
The value was “highly sensitive”.

And the “change of TDR in blood samples during the incubation” value (patient's blood)?
Its value is “progressive decrease”.

What about the clinical outcome [3] of the same compound?
The clinical outcome was “sustained remission of chronic bronchitis”.

How did the “increase in TDR compared with the control” value (blood cell fraction; patient B. blood cell fraction, after 1 hour of incubation, dose 50 mg) turn out when `CC(=O)N[C@H]1[C@H](O[C@H]2[C@H](O[C@H](C)C(=O)N[C@@H](C)C(=O)N[C@H](CCC(=O)O)C(N)=O)[C@@H](NC(C)=O)C(O)O[C@@H]2CO)O[C@H](CO)[C@@H](O)[C@@H]1O` (stereo partly drawn) [GMDP, glucosomuramyldipeptide] was run?
The value was 78%.

What about the “increase in TDR” value (blood cell fraction; patient B. blood cell fraction, after 24 h of incubation, dose 10 mg) of the same compound?
Its value is 228%.

What about the “TDR increase compared to control” value (whole blood; 24 h incubation, dose 5 mg) of the same compound?
Its value is 64%.
